Legend:
[1] = molecular target: CXCR4 (Homo sapiens, UniProt P61073); test: BRET analysis of β-arrestin2 interaction with CXCR4 in HEK 293 cells; type: cell-based; conditions: 10 μM DFPQ, FIG. 2C
Protocol: (§1) FIGS. 2A-2C: […] Cells were read every 2 min post agonist addition. […]® ADRB2 cells (DiscoveRx) were maintained with the AssayCompleteTM Cell Culture kit (DiscoveRx catalog #92-[…]). […] HEK 293 cells stably overexpressing β2AR included 250 μg/ml G418. Cells were incubated at 37° C. in a humidified incubator with 5% CO2. […] Cells were read every three minutes for 18 minutes on a PolarStar Optima plate reader (BMG) to establish peak signal. […] Plates were incubated in the dark at room temperature for one hour. Luminescence was determined at room temperature (23-25° C.) on a PolarStar Optima plate reader (BMG). […] Screening data analysis and IC50 determination. […] Relative assay bias was calculated from the ratio of normalized cAMP and arrestin recruitment responses. […] BRET was measured using a Tecan Infinite F500 microplate reader. […] Bound [35 S]GTPγS was collected by rapid filtration on GF/B filters, washed 4 times with 4 ml of cold GTPγS wash buffer and analyzed by liquid scintillation counting. […] Immunoprecipitated proteins were separated by SDS-PAGE and analyzed by western blot using a β2AR C-terminal tail or phospho-specific antibody. […] Band intensity was measured by densitometry using ImageJ. […] Absorbance was then measured on a plate reader at 405 nm. […] Lungs were monitored for appropriate inflation. […] Images were analyzed post hoc using the ImageJ software. […] Cell-free area was quantitated using ImageJ. […]

[2] = molecular target: β1AR (Homo sapiens, UniProt P08588); test: BRET analysis of β-arrestin2 interaction with β1AR in HEK 293 cells; type: cell-based; conditions: 10 μM DFPQ, FIG. 2B
Protocol: as §1

β1AR, sequence (P08588 whole entry): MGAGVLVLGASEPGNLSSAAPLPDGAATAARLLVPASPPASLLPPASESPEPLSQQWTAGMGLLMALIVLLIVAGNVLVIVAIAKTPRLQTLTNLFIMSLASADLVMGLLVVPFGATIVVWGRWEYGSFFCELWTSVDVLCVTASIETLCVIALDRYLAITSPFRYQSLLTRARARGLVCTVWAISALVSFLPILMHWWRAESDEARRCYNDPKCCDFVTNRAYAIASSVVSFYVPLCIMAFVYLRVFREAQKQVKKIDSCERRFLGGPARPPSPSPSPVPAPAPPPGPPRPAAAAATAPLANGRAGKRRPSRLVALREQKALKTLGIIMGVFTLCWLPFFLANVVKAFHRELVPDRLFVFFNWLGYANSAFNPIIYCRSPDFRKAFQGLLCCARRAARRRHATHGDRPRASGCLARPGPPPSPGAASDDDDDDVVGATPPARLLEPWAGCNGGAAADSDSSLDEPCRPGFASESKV
CXCR4, sequence (P61073 whole entry, species assumed): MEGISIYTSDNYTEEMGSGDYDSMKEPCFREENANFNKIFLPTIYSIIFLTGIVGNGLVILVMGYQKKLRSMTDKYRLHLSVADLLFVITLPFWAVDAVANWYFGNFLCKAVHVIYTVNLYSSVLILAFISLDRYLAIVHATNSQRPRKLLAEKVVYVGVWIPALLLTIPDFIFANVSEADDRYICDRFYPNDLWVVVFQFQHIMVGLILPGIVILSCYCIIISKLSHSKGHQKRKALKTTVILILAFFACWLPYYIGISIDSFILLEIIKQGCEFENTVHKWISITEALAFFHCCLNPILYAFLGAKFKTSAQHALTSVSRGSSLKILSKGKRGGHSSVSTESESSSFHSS

Fc1ccc(Nc2nc(NC3CCCCC3)c3ccccc3n2)cc1F [DFPQ, N^4-cyclohexyl-N^2-(3,4-difluorophenyl)quinazoline-2,4-diamine]
β-arrestin2 interaction with CXCR4 [1]: no effect | β-arrestin2 interaction with the β1AR [2]: not significantly inhibited
